We go through 14 sequences from patent US9896492B2, “HJURP peptides and vaccines including the same” (OncoTherapy Science, Inc., priority 2010, dated 2018).

For the assay, the system named is peptide-pulsed T2 cells. The assay can be described thus: In vitro CTL induction, IFN-gamma ELISPOT assay (HLA-A*0201). Conditions: for Peptide specific CTL activity, IFN-gamma production (ELISPOT): CTLs from HLA-A*0201 positive donor stimulated with peptide-pulsed DCs, against peptide-pulsed target cells vs control; for CTL inducibility / specific CTL activity of CTLs stimulated with the peptide (summary statement): HLA-A2 restricted peptides. The assay is classed as cell-based, human. From the text: Monocyte-derived dendritic cells (DCs) were used as antigen-presenting cells to induce cytotoxic T lymphocyte (CTL) responses against peptides presented on human leukocyte antigen (HLA). DCs were generated in vitro as described elsewhere (Nakahara S et al., Cancer Res 2003 Jul. 15, 63(14): 4112-8). Specifically, peripheral blood mononuclear cells isolated from a normal volunteer (HLA-A*0201 positive) by Ficoll-Plaque (Pharmacia) solution were separated by adherence to a plastic tissue culture dish (Becton Dickinson) so as to enrich them as the monocyte fraction. The monocyte-enriched population was cultured in the presence of 1,000 U/ml of granulocyte-macrophage colony-stimulating factor (R&D System) and 1,000 U/ml of interleukin (IL)-4 (R&D System) in AIM-V Medium (Invitrogen) containing 2% heat-inactivated autologous serum (AS). After 7 days of culture, the cytokine-induced DCs were pulsed with 20 micro-g/ml of each of the synthesized peptides in the presence of 3 micro-g/ml of beta 2-microglobulin for 3 hrs at 37 degrees C. in AIM-V Medium. The generated cells appeared to express DC-associated molecules, such as CD80, CD83, CD86 and HLA class II, on their cell surfaces (data not shown). These peptide-pulsed DCs were then inactivated by X-irradiation (20 Gy) and mixed at a 1:20 ratio with autologous CD8+ T cells, obtained by positive selection with CD8 Positive Isolation Kit (Dynal). These cultures were set up in 48-well plates (Corning); each well contained 1.5×10^4 peptide-pulsed DCs, 3×10^5 CD8+ T cells and 10 ng/ml of IL-7 (R&D System) in 0.5 ml of AIM-V/2% AS medium. Three days later, these cultures were supplemented with IL-2 (CHIRON) to a final concentration of 20 IU/ml. On days 7 and 14, the T cells were further stimulated with the autologous peptide-pulsed DCs. The DCs were prepared each time by the same way described above. CTLs were tested against peptide-pulsed T2 cells after the 3rd round of peptide stimulation on day 21 (Tanaka H et al., Br J Cancer 2001 Jan. 5, 84(1): 94-9; Umano Y et al., Br J Cancer 2001 Apr. 20, 84(8): 1052-7; Uchida N et al., Clin Cancer Res 2004 Dec. 15, 10(24): 8577-86; Suda T et al., Cancer Sci 2006 May, 97(5): 411-9; Watanabe T et al., Cancer Sci 2005 August, 96(8): 498-506).
Specifically, peptide-pulsed T2 (1×10^4/well) was prepared as stimulator cells. Cultured cells in 48 wells were used as responder cells. IFN-gamma ELISPOT assay and IFN-gamma ELISA assay were performed under manufacture procedure.

Entries after “also recorded” stand apart in the source; their conditions may differ.

In the case of KLEKAFLEV [SEQ ID NO: 27], the “Peptide specific CTL activity, IFN-gamma production (ELISPOT)” value (“Peptide specific CTL activity” below) is recorded as “potent IFN-gamma production”. The “CTL inducibility / specific CTL activity of CTLs stimulated with the peptide (summary statement)” value (shortened to “CTL inducibility / specific CTL activity”) (listed as HJURP-A02-9-354) is “significant and specific CTL activity”. Take KLEKAFLEV [compound 27]: the “CTL inducibility / specific CTL activity” value is “strong CTL inducibility”. As for MTVPLCIGV [SEQ ID NO: 32], the “Peptide specific CTL activity” value is listed as “potent IFN-gamma production”. Also, the “CTL inducibility / specific CTL activity” value (listed as HJURP-A02-9-599) was “significant and specific CTL activity”. Take MTVPLCIGV [compound 32]: the “CTL inducibility / specific CTL activity” value is given as “strong CTL inducibility”. Same read-out and setting: in the case of RTLKWLISPV [compound 37] it was “strong CTL inducibility”.

As for SLIYFDSSA [SEQ ID NO: 35], the “Peptide specific CTL activity” value is “potent IFN-gamma production”. Moreover, the “CTL inducibility / specific CTL activity” value (listed as HJURP-A02-9-386) is “significant and specific CTL activity”. Consider SLIYFDSSA [compound 35], for which the “CTL inducibility / specific CTL activity” value is given as “strong CTL inducibility”. For the sequence SLSEAFENL [compound 26], the “CTL inducibility / specific CTL activity” value is given as “strong CTL inducibility”. Still for that read-out and setting: in the case of SVAWALAPAV [compound 38] it was “strong CTL inducibility”. The same measure, in the same setting: in the case of TLKWLISPV [compound 30] it was “strong CTL inducibility”. Take TLTYETPQGL [SEQ ID NO: 43]: the “Peptide specific CTL activity” value is given as “potent IFN-gamma production”. Further, where the note is “listed as HJURP-A02-10-54”, the “CTL inducibility / specific CTL activity” value is “significant and specific CTL activity”.

For TLTYETPQGL [compound 43], the “CTL inducibility / specific CTL activity” value is “strong CTL inducibility”. The same measure, in the same setting: in the case of VAWALAPAV [compound 31] it was “strong CTL inducibility”. In the case of YLTQVDILL [SEQ ID NO: 25], the “Peptide specific CTL activity” value (listed as HJURP-A02-9-150) is recorded as “a specific CTL response was not observed; also recorded: no specific IFN-gamma production was detected”.
